# Results taken from ChEMBL document CHEMBL4507294, “Data for DCP probe MSD-CYP11B2” (2021).
# Experiments:
# [1] = target: 5-hydroxytryptamine receptor 2B (Homo sapiens, UniProt P41595); test: GPCRScan assay: inhibition of 5-HT2B; set-up: radioligand conc. used [nm] 1.0 – 2.0, parental cells stable HEK
# [2] = system: Tyrosine-protein kinase ABL1 (Homo sapiens), P00519 [F317L]; details: Compound concentration 1000.0 nM
# [3] = system: Tyrosine-protein kinase ABL1 (Homo sapiens), P00519 [Q252H]; details: Compound concentration 1000.0 nM
# [4] = target: Activin receptor type-1 (Homo sapiens) (UniProt Q04771); details: Compound concentration 1000.0 nM
# [5] = target: Aurora kinase B (Homo sapiens) (UniProt Q96GD4); details: Compound concentration 1000.0 nM
# Sequence of Aurora kinase B (Homo sapiens) (Q96GD4 whole entry): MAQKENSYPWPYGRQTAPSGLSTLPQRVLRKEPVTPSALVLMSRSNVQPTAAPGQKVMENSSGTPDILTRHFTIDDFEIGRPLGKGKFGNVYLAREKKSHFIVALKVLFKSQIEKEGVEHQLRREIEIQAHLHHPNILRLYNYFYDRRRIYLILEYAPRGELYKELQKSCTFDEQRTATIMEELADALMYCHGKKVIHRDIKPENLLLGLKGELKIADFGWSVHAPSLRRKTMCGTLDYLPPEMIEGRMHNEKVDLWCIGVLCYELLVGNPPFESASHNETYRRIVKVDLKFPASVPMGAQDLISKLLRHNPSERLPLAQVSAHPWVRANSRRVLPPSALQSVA
# [6] = target: Protein-tyrosine kinase 6 (Homo sapiens) (UniProt Q13882); details: Compound concentration 1000.0 nM
# [7] = target: Calcium/calmodulin-dependent protein kinase type 1 (Homo sapiens) (UniProt Q14012); details: Compound concentration 1000.0 nM
# Sequence of Calcium/calmodulin-dependent protein kinase type 1 (Homo sapiens) (Q14012 whole entry, looked up): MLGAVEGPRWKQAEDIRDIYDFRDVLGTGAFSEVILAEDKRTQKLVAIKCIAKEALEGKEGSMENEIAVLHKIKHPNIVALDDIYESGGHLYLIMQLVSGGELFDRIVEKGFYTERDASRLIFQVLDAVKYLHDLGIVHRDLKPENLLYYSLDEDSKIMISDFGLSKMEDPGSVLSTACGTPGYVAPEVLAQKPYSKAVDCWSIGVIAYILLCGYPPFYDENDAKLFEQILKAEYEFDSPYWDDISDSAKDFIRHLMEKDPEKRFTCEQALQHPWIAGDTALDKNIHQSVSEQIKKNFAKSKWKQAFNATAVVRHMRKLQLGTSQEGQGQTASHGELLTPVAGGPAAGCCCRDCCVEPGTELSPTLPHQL
# [8] = target: Calcium/calmodulin-dependent protein kinase type 1B (Homo sapiens) (UniProt Q6P2M8); details: Compound concentration 1000.0 nM
# [9] = target: Calcium/calmodulin-dependent protein kinase kinase 1 (Homo sapiens) (UniProt Q8N5S9); details: Compound concentration 1000.0 nM
# [10] = target: Cyclin-dependent kinase 5 (Homo sapiens) (UniProt Q00535); details: Compound concentration 1000.0 nM
# [11] = target: Dual specificity protein kinase CLK4 (Homo sapiens) (UniProt Q9HAZ1); details: Compound concentration 1000.0 nM
# [12] = target: Casein kinase I isoform alpha (Homo sapiens) (UniProt P48729); details: Compound concentration 1000.0 nM
# [13] = target: Casein kinase I isoform gamma-1 (Homo sapiens) (UniProt Q9HCP0); details: Compound concentration 1000.0 nM
# [14] = target: Serine/threonine-protein kinase DCLK1 (Homo sapiens) (UniProt O15075); details: Compound concentration 1000.0 nM
# [15] = target: Serine/threonine-protein kinase DCLK2 (Homo sapiens) (UniProt Q8N568); details: Compound concentration 1000.0 nM
# Sequence of Serine/threonine-protein kinase DCLK2 (Homo sapiens) (Q8N568 whole entry): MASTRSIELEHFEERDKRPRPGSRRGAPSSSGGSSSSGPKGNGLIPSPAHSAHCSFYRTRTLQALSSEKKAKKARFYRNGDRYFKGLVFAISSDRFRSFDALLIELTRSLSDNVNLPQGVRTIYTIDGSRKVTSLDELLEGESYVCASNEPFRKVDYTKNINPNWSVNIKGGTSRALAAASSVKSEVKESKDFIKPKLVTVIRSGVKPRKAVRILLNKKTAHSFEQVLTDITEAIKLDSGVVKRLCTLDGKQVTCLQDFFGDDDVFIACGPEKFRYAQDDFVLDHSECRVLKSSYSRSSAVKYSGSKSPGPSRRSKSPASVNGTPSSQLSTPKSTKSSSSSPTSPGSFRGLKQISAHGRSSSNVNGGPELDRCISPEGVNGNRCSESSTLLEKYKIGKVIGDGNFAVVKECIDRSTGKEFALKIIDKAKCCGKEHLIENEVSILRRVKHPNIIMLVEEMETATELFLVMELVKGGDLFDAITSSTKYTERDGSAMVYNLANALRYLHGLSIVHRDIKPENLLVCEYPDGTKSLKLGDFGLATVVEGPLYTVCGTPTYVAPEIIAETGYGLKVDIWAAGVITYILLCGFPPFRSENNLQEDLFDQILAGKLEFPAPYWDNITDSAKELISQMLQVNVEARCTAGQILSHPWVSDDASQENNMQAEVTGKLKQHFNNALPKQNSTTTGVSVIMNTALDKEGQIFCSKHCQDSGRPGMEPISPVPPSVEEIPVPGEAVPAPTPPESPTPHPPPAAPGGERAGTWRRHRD
# [16] = system: Epidermal growth factor receptor (Homo sapiens), P00533 [T790M]; details: Compound concentration 1000.0 nM
# [17] = target: Eukaryotic translation initiation factor 2-alpha kinase 1 (Homo sapiens) (UniProt Q9BQI3); details: Compound concentration 1000.0 nM
# Sequence of Eukaryotic translation initiation factor 2-alpha kinase 1 (Homo sapiens) (Q9BQI3 whole entry): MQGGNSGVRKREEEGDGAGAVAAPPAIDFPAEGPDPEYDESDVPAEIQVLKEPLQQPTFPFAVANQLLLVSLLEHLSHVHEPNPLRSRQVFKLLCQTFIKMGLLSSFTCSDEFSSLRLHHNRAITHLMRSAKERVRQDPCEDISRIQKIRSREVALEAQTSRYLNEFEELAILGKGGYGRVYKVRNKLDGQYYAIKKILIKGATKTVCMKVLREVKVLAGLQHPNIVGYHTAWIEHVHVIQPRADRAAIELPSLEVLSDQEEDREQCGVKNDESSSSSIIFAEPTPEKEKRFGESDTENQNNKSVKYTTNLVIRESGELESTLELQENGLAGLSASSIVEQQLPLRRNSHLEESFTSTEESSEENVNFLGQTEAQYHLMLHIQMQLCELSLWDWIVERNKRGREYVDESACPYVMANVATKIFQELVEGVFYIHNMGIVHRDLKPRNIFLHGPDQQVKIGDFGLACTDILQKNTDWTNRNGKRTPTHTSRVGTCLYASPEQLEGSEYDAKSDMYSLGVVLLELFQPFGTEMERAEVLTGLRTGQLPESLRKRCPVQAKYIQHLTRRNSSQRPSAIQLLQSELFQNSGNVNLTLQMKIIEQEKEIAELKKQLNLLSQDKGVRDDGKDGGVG
# [18] = target: Receptor tyrosine-protein kinase erbB-4 (Homo sapiens) (UniProt Q15303); details: Compound concentration 1000.0 nM
# [19] = target: Mitogen-activated protein kinase 3 (Homo sapiens) (UniProt P27361); details: Compound concentration 1000.0 nM
# [20] = target: Fibroblast growth factor receptor 4 (Homo sapiens) (UniProt P22455); details: Compound concentration 1000.0 nM
# [21] = system: eIF-2-alpha kinase GCN2 (Homo sapiens), Q9P2K8 [S808G]; details: Compound concentration 1000.0 nM
# [22] = target: Insulin-like growth factor 1 receptor (Homo sapiens) (UniProt P08069); details: Compound concentration 1000.0 nM
# Sequence of Insulin-like growth factor 1 receptor (Homo sapiens) (P08069 31-736 limits assumed): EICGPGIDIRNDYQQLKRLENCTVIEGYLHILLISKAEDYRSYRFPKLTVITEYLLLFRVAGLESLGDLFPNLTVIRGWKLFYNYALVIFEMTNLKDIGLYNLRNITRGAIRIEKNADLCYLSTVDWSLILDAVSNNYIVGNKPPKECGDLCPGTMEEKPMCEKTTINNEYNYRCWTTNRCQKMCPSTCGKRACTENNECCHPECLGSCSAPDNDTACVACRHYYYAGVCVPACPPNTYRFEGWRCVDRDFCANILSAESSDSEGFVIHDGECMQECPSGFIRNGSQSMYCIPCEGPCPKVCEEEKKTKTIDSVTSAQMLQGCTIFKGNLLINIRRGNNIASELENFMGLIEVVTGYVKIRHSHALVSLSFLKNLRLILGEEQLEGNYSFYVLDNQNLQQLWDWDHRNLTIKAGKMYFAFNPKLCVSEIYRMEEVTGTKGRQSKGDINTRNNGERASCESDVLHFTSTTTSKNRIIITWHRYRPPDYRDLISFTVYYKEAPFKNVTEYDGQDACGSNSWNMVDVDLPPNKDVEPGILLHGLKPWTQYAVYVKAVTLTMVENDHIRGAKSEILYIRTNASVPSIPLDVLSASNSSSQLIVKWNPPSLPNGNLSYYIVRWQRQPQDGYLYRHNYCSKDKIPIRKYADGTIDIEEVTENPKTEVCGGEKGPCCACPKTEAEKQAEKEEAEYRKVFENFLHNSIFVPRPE
# Sequence of Insulin-like growth factor 1 receptor (Homo sapiens) (P08069 741-1367 limits assumed): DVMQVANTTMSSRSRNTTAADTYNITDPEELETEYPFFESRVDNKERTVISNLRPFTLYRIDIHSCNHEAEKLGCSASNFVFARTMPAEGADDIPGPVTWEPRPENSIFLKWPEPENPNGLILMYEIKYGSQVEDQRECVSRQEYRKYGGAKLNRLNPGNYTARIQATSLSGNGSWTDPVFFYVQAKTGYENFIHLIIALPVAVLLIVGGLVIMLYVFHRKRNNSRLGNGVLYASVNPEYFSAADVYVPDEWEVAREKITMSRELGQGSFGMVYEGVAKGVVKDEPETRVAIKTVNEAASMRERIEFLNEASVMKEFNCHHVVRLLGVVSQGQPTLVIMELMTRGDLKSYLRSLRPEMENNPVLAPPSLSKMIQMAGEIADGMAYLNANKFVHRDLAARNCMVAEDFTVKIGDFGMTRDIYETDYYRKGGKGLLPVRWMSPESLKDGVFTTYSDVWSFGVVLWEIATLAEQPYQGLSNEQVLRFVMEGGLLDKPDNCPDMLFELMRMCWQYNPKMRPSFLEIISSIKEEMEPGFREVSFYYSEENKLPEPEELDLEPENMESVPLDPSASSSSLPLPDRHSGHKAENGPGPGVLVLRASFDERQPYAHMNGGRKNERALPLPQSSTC
# [23] = target: Tyrosine-protein kinase JAK1 (Homo sapiens) (UniProt P23458); details: Compound concentration 1000.0 nM
# [24] = target: Serine/threonine-protein kinase LATS2 (Homo sapiens) (UniProt Q9NRM7); details: Compound concentration 1000.0 nM
# [25] = target: Leukocyte tyrosine kinase receptor (Homo sapiens) (UniProt P29376); details: Compound concentration 1000.0 nM
# [26] = target: Mitogen-activated protein kinase kinase kinase 1 (Homo sapiens) (UniProt Q13233); details: Compound concentration 1000.0 nM
# [27] = target: Mitogen-activated protein kinase kinase kinase 15 (Homo sapiens) (UniProt Q6ZN16); details: Compound concentration 1000.0 nM
# [28] = target: Tyrosine-protein kinase Mer (Homo sapiens) (UniProt Q12866); details: Compound concentration 1000.0 nM
# [29] = target: Dual specificity mitogen-activated protein kinase kinase 7 (Homo sapiens) (UniProt O14733); details: Compound concentration 1000.0 nM
# Sequence of Dual specificity mitogen-activated protein kinase kinase 7 (Homo sapiens) (O14733 whole entry): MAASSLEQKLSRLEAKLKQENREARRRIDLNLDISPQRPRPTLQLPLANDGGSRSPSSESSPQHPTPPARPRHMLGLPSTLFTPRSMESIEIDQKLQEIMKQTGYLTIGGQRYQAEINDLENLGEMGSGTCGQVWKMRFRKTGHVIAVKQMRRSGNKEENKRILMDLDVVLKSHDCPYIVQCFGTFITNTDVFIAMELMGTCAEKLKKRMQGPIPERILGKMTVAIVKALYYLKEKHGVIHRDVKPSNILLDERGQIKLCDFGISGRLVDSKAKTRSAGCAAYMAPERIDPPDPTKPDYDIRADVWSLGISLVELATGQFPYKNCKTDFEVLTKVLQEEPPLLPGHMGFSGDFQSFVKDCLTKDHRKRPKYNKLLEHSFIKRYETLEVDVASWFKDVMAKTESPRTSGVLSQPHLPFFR
# [30] = target: Serine/threonine-protein kinase 38 (Homo sapiens) (UniProt Q15208); details: Compound concentration 1000.0 nM
# Sequence of Serine/threonine-protein kinase 38 (Homo sapiens) (Q15208 2-465 limits assumed): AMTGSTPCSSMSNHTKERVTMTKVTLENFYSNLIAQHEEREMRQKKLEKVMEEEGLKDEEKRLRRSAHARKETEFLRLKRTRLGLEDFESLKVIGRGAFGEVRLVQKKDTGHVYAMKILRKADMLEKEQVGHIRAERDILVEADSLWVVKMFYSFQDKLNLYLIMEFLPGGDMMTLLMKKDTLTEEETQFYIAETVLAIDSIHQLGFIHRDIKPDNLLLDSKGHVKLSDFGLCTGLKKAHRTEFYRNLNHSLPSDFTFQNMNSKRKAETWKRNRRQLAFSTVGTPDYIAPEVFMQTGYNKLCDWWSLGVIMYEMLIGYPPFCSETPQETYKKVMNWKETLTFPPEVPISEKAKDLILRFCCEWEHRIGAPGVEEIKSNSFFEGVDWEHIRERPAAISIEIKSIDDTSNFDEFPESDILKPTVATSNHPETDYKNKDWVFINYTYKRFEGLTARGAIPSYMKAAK
# [31] = target: Serine/threonine-protein kinase Nek1 (Homo sapiens) (UniProt Q96PY6); details: Compound concentration 1000.0 nM
# [32] = target: Serine/threonine-protein kinase Nek3 (Homo sapiens) (UniProt P51956); details: Compound concentration 1000.0 nM
# [33] = target: Mitogen-activated protein kinase kinase kinase 14 (Homo sapiens) (UniProt Q99558); details: Compound concentration 1000.0 nM
# [34] = target: Serine/threonine-protein kinase NLK (Homo sapiens) (UniProt Q9UBE8); details: Compound concentration 1000.0 nM
# [35] = target: Platelet-derived growth factor receptor alpha (Homo sapiens) (UniProt P16234); details: Compound concentration 1000.0 nM
# [36] = target: Phosphatidylinositol 4,5-bisphosphate 3-kinase catalytic subunit alpha isoform (Homo sapiens) (UniProt P42336); details: Compound concentration 1000.0 nM
# [37] = system: Phosphatidylinositol 4,5-bisphosphate 3-kinase catalytic subunit alpha isoform (Homo sapiens), P42336 [I800L]; details: Compound concentration 1000.0 nM
# [38] = target: Serine/threonine-protein kinase pim-2 (Homo sapiens) (UniProt Q9P1W9); details: Compound concentration 1000.0 nM
# [39] = target: Protein kinase C eta type (Homo sapiens) (UniProt P24723); details: Compound concentration 1000.0 nM
# [40] = target: Ribosomal protein S6 kinase alpha-3 (Homo sapiens) (UniProt P51812); details: Compound concentration 1000.0 nM
# [41] = target: SRSF protein kinase 2 (Homo sapiens) (UniProt P78362); details: Compound concentration 1000.0 nM
# Sequence of SRSF protein kinase 2 (Homo sapiens) (P78362 whole entry, looked up): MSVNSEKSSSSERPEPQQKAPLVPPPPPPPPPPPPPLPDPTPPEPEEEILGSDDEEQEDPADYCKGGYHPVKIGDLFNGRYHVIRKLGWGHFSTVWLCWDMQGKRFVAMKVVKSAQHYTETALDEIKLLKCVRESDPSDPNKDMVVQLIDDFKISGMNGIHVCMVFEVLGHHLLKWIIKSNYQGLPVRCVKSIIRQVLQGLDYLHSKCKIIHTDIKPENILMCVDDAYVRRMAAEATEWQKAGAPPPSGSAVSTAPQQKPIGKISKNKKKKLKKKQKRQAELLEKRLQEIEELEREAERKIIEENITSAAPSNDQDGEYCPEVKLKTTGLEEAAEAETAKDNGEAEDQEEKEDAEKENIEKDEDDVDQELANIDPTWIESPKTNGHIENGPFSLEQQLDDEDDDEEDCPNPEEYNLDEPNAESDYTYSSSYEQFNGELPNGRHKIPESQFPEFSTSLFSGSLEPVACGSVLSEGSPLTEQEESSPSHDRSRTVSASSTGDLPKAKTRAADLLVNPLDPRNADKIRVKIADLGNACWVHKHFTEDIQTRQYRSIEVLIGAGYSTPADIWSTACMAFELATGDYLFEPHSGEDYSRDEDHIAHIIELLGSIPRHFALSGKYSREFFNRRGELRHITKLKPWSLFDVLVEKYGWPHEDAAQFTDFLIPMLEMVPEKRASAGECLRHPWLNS
# [42] = target: Serine/threonine-protein kinase TAO1 (Homo sapiens) (UniProt Q7L7X3); details: Compound concentration 1000.0 nM
# [43] = target: Mitogen-activated protein kinase kinase kinase 19 (Homo sapiens) (UniProt Q56UN5); details: Compound concentration 1000.0 nM
# [44] = target: 5-hydroxytryptamine receptor 2A (Homo sapiens) (UniProt P28223); details: Compound concentration 10.0 uM
# [45] = target: Kappa-type opioid receptor (Homo sapiens) (UniProt P41145); details: Compound concentration 10.0 uM
# [46] = target: Histamine H1 receptor (Homo sapiens) (UniProt P35367); details: Compound concentration 10.0 uM
structure (smiles),measurement,setting,value
FC(F)(F)c1ccc2c(c1)nc(-c1cccnc1)n2C1CC1 [MSD-CYP11B2-Negative-control],Ki,[1],1070 nM
same,residual activity,[2],100%
same,residual activity,[3],81%
same,residual activity,[4],100%
same,residual activity,[5],100%
same,residual activity,[6],100%
same,residual activity,[7],100%
same,residual activity,[8],100%
same,residual activity,[9],100%
same,residual activity,[10],100%
same,residual activity,[11],100%
same,residual activity,[12],90%
same,residual activity,[13],100%
same,residual activity,[14],84%
same,residual activity,[15],100%
same,residual activity,[16],87%
same,residual activity,[17],100%
same,residual activity,[18],100%
same,residual activity,[19],100%
same,residual activity,[20],100%
same,residual activity,[21],93%
same,residual activity,[22],100%
same,residual activity,[23],100%
same,residual activity,[24],100%
same,residual activity,[25],100%
same,residual activity,[26],100%
same,residual activity,[27],100%
same,residual activity,[28],79%
same,residual activity,[29],100%
same,residual activity,[30],93%
same,residual activity,[31],100%
same,residual activity,[32],88%
same,residual activity,[33],100%
same,residual activity,[34],100%
same,residual activity,[35],100%
same,residual activity,[36],100%
same,residual activity,[37],99%
same,residual activity,[38],100%
same,residual activity,[39],100%
same,residual activity,[40],89%
same,residual activity,[41],93%
same,residual activity,[42],100%
same,residual activity,[43],99%
same,inhibition,[44],4.15%
same,inhibition,[45],-1.84%
same,inhibition,[46],9.49%
CC(C)(O)c1cncc(-c2nc3ccc(F)cc3n2C2CC2)c1 [MSD-CYP11B2],Ki,[1],1540 nM
same,residual activity,[2],100%
same,residual activity,[3],89%
same,residual activity,[4],100%
same,residual activity,[5],100%
same,residual activity,[6],100%
same,residual activity,[7],100%
same,residual activity,[8],100%
same,residual activity,[9],100%
same,residual activity,[10],100%
same,residual activity,[11],54%
same,residual activity,[12],84%
same,residual activity,[13],100%
same,residual activity,[14],88%
same,residual activity,[15],100%
same,residual activity,[16],90%
same,residual activity,[17],100%
same,residual activity,[18],100%
same,residual activity,[19],100%
same,residual activity,[20],100%
same,residual activity,[21],100%
same,residual activity,[22],100%
same,residual activity,[23],100%
same,residual activity,[24],100%
same,residual activity,[25],100%
same,residual activity,[26],100%
same,residual activity,[27],100%
same,residual activity,[28],96%
same,residual activity,[29],100%
same,residual activity,[30],99%
same,residual activity,[31],100%
same,residual activity,[32],100%
same,residual activity,[33],100%
same,residual activity,[34],100%
same,residual activity,[35],100%
same,residual activity,[36],100%
same,residual activity,[37],90%
same,residual activity,[38],100%
same,residual activity,[39],98%
same,residual activity,[40],100%
same,residual activity,[41],86%
same,residual activity,[42],100%
same,residual activity,[43],93%
same,inhibition,[44],-0.31%
same,inhibition,[45],-8.65%
same,inhibition,[46],9.54%
